Structures are written as SMILES. “Also recorded” adds a separate entry of the source.

Assay [1] deals with CRF01_AE Env from a transmitted founder strain (40100 isolate) with LM+HS mutations. As to the kind of experiment: Cell-surface staining of primary CD4+ T cells infected with SHIV expressing CRF01_AE Env, anti-Env mAb binding with compound. It counts as cell-based. The procedure: Cell-surface staining of primary CD4^+ T cells infected with SHIV expressing a CRF01_AE Env from a transmitted founder strain (40100 isolate) (Chenine A L et al., 2018. J Acquir Immune Defic Syndr 78:348-355; Kijak G H et al., 2017. PLoS Pathog 13:e1006510) mutated to harbor the LM+HS mutations using a panel of Env ligands. Binding of anti-Env mAbs preferring State 1 (PGT128, PGT145, PG9, 10-1074) (FIG. 7A-D) or preferring State 2/3 (19b, 17b) (FIG. 7E-F) was performed in presence of DMSO or increasing amount of BNM-III-170 (stabilises States 2/3 (Munro J B et al., 2014. Science 346:759-763; Alsahafi N et al., 2019. Cell Host Microbe 25:578-587: e575; Herschhorn A, et al. 2017. Nat Commun 8:1049) or BMS-626529 (stabilizes State 1, (Lu M et al. 2019. Nature 568, pages 415-419; Munro J B et al., 2014. Science 346:759-763)). Shown are the mean fluorescence intensities (MFI) obtained in presence of the compounds normalized to the MFI in absence of any compound (DMSO) from the infected (p27+) population. All MFI were normalized to 2G12 MFI for each mAb. State 1 and State 2/3 Abs were grouped in FIG. 7G and FIG. 7H, respectively.

In assay [2] the test system is Recombinant HIV-1 strains bearing wild-type or mutant CRF01_AE Envs (92TH023 and CM244 isolates). The assay is described as follows: Neutralization of recombinant luciferase HIV-1 bearing wild-type or mutant CRF01_AE Envs, infection of Cf2Th-CD4/CCR5 cells. The assay is classed as cell-based. The procedure:
J Virol 74:10690-10698). Infectivity at each dilution of sCD4 or CD4mc tested is shown as the percentage of infection without sCD4 or CD4mc for each particular mutant. Quadruplicate samples were analyzed in each experiment. Data shown are the means of results obtained in at least 3 independent experiments. The error bars represent the standard deviations. […]
FIGS. 6A-F show the effect of Phe43 cavity and layer mutations (LM) on neutralization by small molecules known to stabilize Env State 1. Recombinant HIV-1 strains expressing luciferase and bearing wild-type or mutant CRF01_AE Envs (92TH023 and CM244 isolates) were normalized by reverse transcriptase activity. Normalized amounts of viruses were incubated with serial dilutions of BMS-626529 (Nowicka-Sans B et al. 2012. Antimicrob Agents Chemother 56:3498-3507; Pancera M et al., 2017. Nat Chem Biol 13:1115-1122) (FIG. 6A, B) or 484 (16) (FIG. 6C) at 37° C. for 1 h prior to infection of Cf2Th-CD4/CCR5 cells. Infectivity at each dilution of the compound tested is shown as the percentage of infection without the compound for each particular mutant. Quadruplicate samples were analyzed in each experiment. Data shown are the means of results obtained in at least 3 independent experiments. The error bars represent the standard deviations. (FIG. 6E, F) Cell-surface staining of 293T cells transfected with different CRF01_AE Env expressors (92TH023 and CM244 isolates) WT or their mutated counterparts together with a GFP expressor (in order to identify positively transfected cells) using sCD4. Binding of sCD4 in presence of BMS-626529 (50 μM) or not (DMSO) was detected with the anti-CD4 OKT4 mAb. Shown are the mean fluorescence intensities (MFI) obtained in presence of BNM-III-170 normalized to the MFI in absence of BNM-III-170 (DMSO) from the transfected (GFP+) population for staining obtained in at least 3 independent experiments. All MFI were normalized to 2G12 MFI for each Env mutants. Decrease in sCD4 signal indicates competition with BMS-626529 (i.e., this represents an indirect measure of BMS-626529 interaction with each Env mutant). […] Error bars indicate mean±SEM. Statistical significance was tested using an unpaired t-test (** p<0.01, ns: non significant). […]
CD4mc were used as probes to evaluate the potential impact of the LM residues on shaping the Phe43 cavity. […] In contrast, no or very little effect was measured in recombinant viruses with mutations in the Phe43 cavity only or in the inner domain layer only.

Assay [3] relates to CRF01_AE Env (92TH023 and CM244 isolates) WT or mutated. As to the kind of experiment: Cell-surface staining of HEK293T cells transfected with CRF01_AE Env expressors, Env ligand binding with or without compound. It counts as cell-based, HIV-1. The procedure:
Cell-surface staining of HEK293T cells transfected with different CRF01_AE Env expressors (92TH023 and CM244 isolates) WT or their mutated counterparts together with a GFP expressor (in order to identify positively transfected cells) using a panel of Env ligands. (FIG. 4A, B) sCD4 binding in presence of BNM-III-170 (50 μM) or not (DMSO) was detected with the anti-CD4 OKT4 mAb. Binding of broadly-neutralizing antibodies (bNAbs) that preferentially recognize state 1 Env (Lu M et al. 2019. Nature 568, pages 415-419; Munro J B et al., 2014. Science 346:759-763) (FIG. 4B, E) and non-neutralizing antibodies (nnAbs) that preferentially recognize states 2/2A/3 (Alsahafi N et al., 2019. Cell Host Microbe 25:578-587, Prevost J et al., 2018. Virology 515:38-45) (FIG. 4C, F) was also performed in presence of BNM-III-170 (50 μM) or not (DMSO). Shown are the mean fluorescence intensities (MFI) obtained in presence of BNM-III-170 normalized to the MFI in absence of BNM-111-170 (DMSO) from the transfected (GFP+) population for staining obtained in at least 3 independent experiments. All MFI were normalized to MFI signals obtained with the anti-gp120 outer domain 2G12. Decrease in sCD4 signal indicates competition with BNM-III-170 (i.e., this represents an indirect measure of BNM-III-170 interaction with each Env mutant) (FIGS. 4A and D). […] Increase in nnAbs signal is consistent with the capacity of BNM-III-170 to push Env to downstream “open” states 2/3 conformations (C and F). […] Error bars indicate mean±SEM. Statistical significance was tested using an unpaired t-test (* p<0.05, ** p<0.01, *** p<0.001, **** p<0.0001, ns: non significant).
FIGS. 6A-F show the effect of Phe43 cavity and layer mutations (LM) on neutralization by small molecules known to stabilize Env State 1. Recombinant HIV-1 strains expressing luciferase and bearing wild-type or mutant CRF01_AE Envs (92TH023 and CM244 isolates) were normalized by reverse transcriptase activity. Normalized amounts of viruses were incubated with serial dilutions of BMS-626529 (Nowicka-Sans B et al. 2012. Antimicrob Agents Chemother 56:3498-3507; Pancera M et al., 2017. Nat Chem Biol 13:1115-1122) (FIG. 6A, B) or 484 (16) (FIG. 6C) at 37° C. for 1 h prior to infection of Cf2Th-CD4/CCR5 cells. Infectivity at each dilution of the compound tested is shown as the percentage of infection without the compound for each particular mutant. Quadruplicate samples were analyzed in each experiment. Data shown are the means of results obtained in at least 3 independent experiments. The error bars represent the standard deviations. (FIG. 6E, F) Cell-surface staining of 293T cells transfected with different CRF01_AE Env expressors (92TH023 and CM244 isolates) WT or their mutated counterparts together with a GFP expressor (in order to identify positively transfected cells) using sCD4. Binding of sCD4 in presence of BMS-626529 (50 μM) or not (DMSO) was detected with the anti-CD4 OKT4 mAb. Shown are the mean fluorescence intensities (MFI) obtained in presence of BNM-III-170 normalized to the MFI in absence of BNM-III-170 (DMSO) from the transfected (GFP+) population for staining obtained in at least 3 independent experiments. All MFI were normalized to 2G12 MFI for each Env mutants. Decrease in sCD4 signal indicates competition with BMS-626529 (i.e., this represents an indirect measure of BMS-626529 interaction with each Env mutant). […] Error bars indicate mean±SEM. Statistical significance was tested using an unpaired t-test (** p<0.01, ns: non significant).
To gain a better understanding of the impact that the LM and 375 changes have on Env conformation, an assay to measure sCD4 and BNM-III-170 capacity to interact with Env was developed. Briefly, CD4-negative cells were transfected with Env variants. Two days post-transfection, BNM-III-170 or the vehicle (DMSO) was added to Env-expressing cells. […]

[4] abbreviates: LM+HS or LM+HT mutants of CRF01_AE Envs versus wild-type.
The mark [5] stands for this setting: LM+HS or LM+HT mutants, BNM-III-170 50 μM vs DMSO.

As for `COc1cnc(-n2cnc(C)n2)c2[nH]cc(C(=O)C(=O)N3CCN(C(=O)c4ccccc4)CC3)c12` [BMS-626529, temsavir], in assay [1] (increasing amount of BMS-626529 vs DMSO), the “Env recognition by bNAbs preferentially binding state 1 in presence of compound” value is on record as “enhanced Env recognition”. Moreover, the sensitivity to neutralization entry in assay [2] (setting [4]) was “sensitized”. Further, the “Env conformation adopted in presence of ligand” value in assay [3] (CRF01_AE gp160 with the same six mutations combined with H375S) was “tend to adopt a state 1 configuration”. Further, the “sCD4 signal in presence of compound (competition, indirect measure of interaction with Env)” value in assay [3] (LM-HS mutant, BMS-626529 50 μM vs DMSO, detected with anti-CD4 OKT4 mAb) is “statistically significant decrease”.
For `CNCc1ccc2c(c1)C[C@H](CN=C(N)N)[C@H]2NC(=O)C(=O)Nc1ccc(Cl)c(F)c1.O=C(O)C(F)(F)F.O=C(O)C(F)(F)F` [BNM-III-170], the “Env recognition by nnAbs preferentially binding states 2/3 in presence of compound” value in assay [1] (increasing amount of BNM-III-170 vs DMSO) is “enhanced Env recognition”. The susceptibility to neutralization result in assay [2] (H375S combined with LM mutations (LM+HS), both CRF01_AE strains) is given as “dramatically enhanced the susceptibility”. The neutralization of pseudotypes result in assay [2] (H375S mutant of both CRF01_AE Envs) is on record as “did not restore neutralization sensibility”. The sensitivity to neutralization entry in assay [2] (setting [4]) was “more sensitive to neutralization”. For the same compound, the sensitivity to neutralization entry in assay [2] (different combinations of single or multiple layer mutations together with H375S) was “did not restore sensitivity”. The “neutralization of viral particles” value in assay [2] (wild-type CRF01_AE Envs (92TH023 and CM244)) is recorded as “resistant to neutralization”. The “Env conformation adopted in presence of ligand” value in assay [3] (CRF01_AE gp160 with H61Y, Q105H, V108I, N474D, I475M, K476R combined with H375T) is “tend to adopt an open state 2/3 configuration”. For the same compound, in assay [3] (setting [5]), the “compound-induced Env conformational changes (open conformation)” value is listed as “superior; also recorded: more susceptible”; the “recognition by state 1 preferring bNAbs in presence of compound” value is “decrease in recognition”; the “sCD4 and nnAbs binding (open state 2/3 preferring) in presence of compound” value is “increase in sCD4 and nnAbs binding”.

(Values after US20220380414A1, “COMPOSITIONS AND METHODS BASED ON HIV GP120 MUTANTS” (CENTRE H[…] L'UNIVERSITÉ DE MONTRÉAL, priority 2019, published 2022).)
